Measured values taken from US20230405003A1, “APPLICATION OF THYMIDINE DERIVATIVE IN PREPARATION OF DRUGS” (ONQUALITY PHARMACEUTICALS CHINA LTD., priority 2020, published 2023).

Assays:
HaCaT cells = assay: Relief of 5-FU proliferative toxicity to HaCaT cells (CCK-8 cell survival); format: cell-based; conditions: for activation at 1000 µM: compound 1000 μM; for Cell Survival Rate (increased percentage of cell survival compared with the Group of 5-FU): 5-Fu 20 μM, HaCaT cells
Procedure: The cultured skin cell HaCaTs were digested, counted, and inoculated into a 96-well plate with 5000-10000 cells in each well. After 24 h of culture, the wells were divided into Group of blank solvent control, Group of 5-FU, Group of 5-FU+thymidine derivative, Group of 5-FU+the combination of thymidine derivative and uridine derivative. […] adding a solution of 5-FU and a solution of thymidine derivative (the final concentrations of 5-FU and thymidine derivative are shown in Table 3, the solution of thymidine is an aqueous solution, while the solutions of thymidine derivatives are all DMSO solutions); Group of 5-FU+the combination of thymidine derivative and uridine derivative: adding a solution of 5-FU and a mixed solution of thymidine derivative and uridine derivative (the final concentrations of the solution of 5-FU and the mixed solution of thymidine derivative+uridine derivative are shown in Table 3, the solution of thymidine is an aqueous solution, while the mixed solutions of thymidine derivative+uridine derivative are all DMSO solutions); Group of blank solvent control: adding the same type of solution as those of the corresponding Group of 5-FU or Group of 5-FU+thymidine derivative (or the mixed solution of thymidine derivative+uridine derivative) in equal volume. Group of blank solvent control was used as control to exclude the influence of the solvents in Group of 5-FU and Group of 5-FU+thymidine derivative (or the mixed solution of thymidine derivative+uridine derivative) on the results. After additional 48 hours of culture, a Cell Counting Kit-8 (CCK-8) detection kit (C0037, purchased from Shanghai Beyotime Biotechnology) is used to determine the cell survival rate, thereby calculating the proliferative toxicity of 5-Fu/5-DFUR on cells and the relieving effect of the thymidine derivative (or the mixed solution of thymidine derivative+uridine derivative) on the proliferative toxicity. Using GraphPad Prism 6.0 software, the results were statistically analyzed by t-test and plotted.
(§1) Table 3 lists the combinations of 5-FU and thymidine derivative (or the mixed solution of thymidine derivative+uridine derivative), and the corresponding experimental results (wherein the data in the column of cell survival indicate the corresponding increased percentage of the cell survivals of Group of 5-FU+thymidine derivative or Group of 5-FU+the combination of thymidine derivative and uridine derivative compared with the Group of 5-FU). FIGS. 3-10 list the experimental results of several representative compounds.
The effect of thymidine derivative or a combination of thymidine derivative and uridine derivative on relieving the proliferative toxicity of a chemotherapeutical drug (5-FU) to HaCaT cells was tested according to the method in Examples 2-29. The test thymidine derivative or the combination of thymidine derivative and uridine derivative, as well as the final concentration of the test compounds were shown in Table 7.
as §1, with “7” for “3”, “15-21” for “3-10”, “exemplary” for “representative”

[1] = system: hand-foot syndrome caused by capecitabine in SD rats; assay: Rat model of hand-foot syndrome caused by capecitabine, gel application; format: in vivo; conditions: capecitabine 4000 mg/kg once daily, 40 days; for Control Rate Forepaws / Control Rate Hindpaws: rats
Procedure: A rat animal model was established. 6-week aged female SD rats were administered with capecitabine by daily gavage. The degree of hand-foot syndrome in paws is similar, and there was no difference between the left and right paws. Similar to the human body, rats developed hand-foot syndrome after oral administration of capecitabine. The causes of the two are the same, and the disorder is also very similar. Therefore, rats are very good animal models for simulating the hand-foot syndrome caused by capecitabine.
After SD rats were fed and adapted for one week (about 200 g), the rats were divided into groups, with 10 rats in each group. Then, the rats were subject to gavage administration. Capecitabine was dissolved in a 1:1 mixed solution of castor oil and ethanol and diluted for three times with PBS buffer. After gavage, the rats were fixed with a fixed cylinder, and a gel of thymidine derivative (or a compounded gel of thymidine derivative and uridine derivative) was applied to double hind paws (about 1 cm*3 cm) of the rats in group of administration (the types and concentrations are shown in Table 4), and a blank gel was applied to the group of blank (as a blank control). After approximately 4 hours of application, the rats were released after 4 hours, wiped with clean water to remove any residual drug at the application site, and allowed back to the cage. The thymidine derivative gel (or the compounded gel of thymidine derivative and uridine derivative) was administered with gavage every day. The gavage and application tests are repeated daily until the group of blank has developed obvious hand-foot syndrome.
Table 4 lists the combinations of animal experiments of capecitabine and the thymidine derivative gel (or the compounded gel of thymidine derivative and uridine derivative) and the corresponding experimental results (wherein, the data in the column of control rate=the occurrence rate of hand-foot syndrome in group of blank—the occurrence rate of hand-foot syndrome in group of administration). […]

[2] = Homo sapiens, HaCaT, increase vs Group of 5-FU, 5-FU 20 μM, 48 h, read-out: Cell Survival Rate
[3] = selected compound final concentration 0.8 μM
[4] = selected compound final concentration 1.6 μM
[5] = selected compound final concentration 3.13 μM
[6] = selected compound final concentration 6.25 μM
[7] = selected compound final concentration 12.5 μM
[8] = selected compound final concentration 25 μM
[9] = selected compound final concentration 50 μM
[10] = selected compound final concentration 100 μM

SMILES | Cell Survival Rate (increased percentage of cell survival compared with the Group of 5-FU) (HaCaT cells; [3]) | Cell Survival Rate (increased percentage of cell survival compared with the Group of 5-FU) (HaCaT cells; [4]) | Cell Survival Rate (increased percentage of cell survival compared with the Group of 5-FU) (HaCaT cells; [5]) | Cell Survival Rate (increased percentage of cell survival compared with the Group of 5-FU) (HaCaT cells; [6]) | Cell Survival Rate (increased percentage of cell survival compared with the Group of 5-FU) (HaCaT cells; [7]) | Cell Survival Rate (increased percentage of cell survival compared with the Group of 5-FU) (HaCaT cells; [8]) | Cell Survival Rate (increased percentage of cell survival compared with the Group of 5-FU) (HaCaT cells; [9]) | Cell Survival Rate (increased percentage of cell survival compared with the Group of 5-FU) (HaCaT cells; [10]) | further results
CCC(=O)OC[C@H]1O[C@@H](n2cc(C)c(=O)[nH]c2=O)C[C@@H]1OC(=O)CC [T5] |  |  |  |  |  |  |  |  | activation at 1 µM (HaCaT cells; Homo sapiens, HaCaT, increase vs Group of 5-FU, 5-FU 20 μM, compound 1 μM, 48 h, read-out: Cell Survival Rate): 18 to 24%; activation at 10 µM (HaCaT cells; Homo sapiens, HaCaT, increase vs Group of 5-FU, 5-FU 20 μM, compound 10 μM, 48 h, read-out: Cell Survival Rate): 55 to 65%; activation at 100 µM (HaCaT cells; Homo sapiens, HaCaT, increase vs Group of 5-FU, 5-FU 20 μM, compound 100 μM, 48 h, read-out: Cell Survival Rate): 77 to 84%; activation at 500 µM (HaCaT cells; Homo sapiens, HaCaT, increase vs Group of 5-FU, 5-FU 20 μM, compound 500 μM, 48 h, read-out: Cell Survival Rate): 78 to 85%; activation at 1000 µM (HaCaT cells; [2]): 35 to 45%; Control Rate ([1]; SD rats, gel 2 wt% on hind paws): 30.00%
Cc1ccc(Nc2c(F)cccc2Cl)c(CC(=O)OC[C@H]2O[C@@H](n3cc(C)c(=O)[nH]c3=O)C[C@@H]2O)c1 [T35] | 23%-31% | 25%-33% | 42%-48% | 64%-70% | 95%-101% | 84%-91% | 85%-92% | 39%-47% | Control Rate Forepaws ([1]; gel 1 wt%): 25%; Control Rate Hindpaws ([1]; gel 1 wt%): 37.50%; Control Rate Forepaws ([1]; gel 5 wt%): 75.00%; Control Rate Hindpaws ([1]; gel 5 wt%): 88%
Cc1cn([C@H]2C[C@H](O)[C@@H](COC(=O)Cc3ccccc3Nc3c(Cl)cccc3Cl)O2)c(=O)[nH]c1=O [T39] | 36%-43% | 58%-66% | 64%-71% | 67%-74% | 65%-72% | 69%-77% | 69%-77% | 75%-83% | 
COc1ccc2cc([C@H](C)C(=O)O[C@H]3C[C@H](n4cc(C)c(=O)[nH]c4=O)O[C@@H]3CO)ccc2c1 [T42] | 38%-45% | 59%-67% | 85%-93% | 85%-92% | 58%-66% | 68%-75% | 66%-74% |  | 
Cc1cn([C@H]2C[C@H](OC(=O)C(C)c3cccc(Oc4ccccc4)c3)[C@@H](CO)O2)c(=O)[nH]c1=O (stereo partly shown) [T43] | 23%-31% | 49%-56% | 72%-79% | 91%-98% | 125%-133% | 99%-106% | 100%-107% | 34%-41% | 
Cc1cn([C@H]2C[C@H](OC(=O)[C@@H](C)c3ccc(CC(C)C)cc3)[C@@H](CO)O2)c(=O)[nH]c1=O [T44] |  |  |  | 13%-20% | 27%-35% | 53%-60% | 69%-76% |  | 
Cc1cn([C@H]2C[C@H](OC(=O)C(C)c3cccc(Oc4ccccc4)c3)[C@@H](COC(=O)C(C)c3cccc(Oc4ccccc4)c3)O2)c(=O)[nH]c1=O (stereo partly shown) [T46] |  |  | 27%-34% | 34%-41% | 48%-55% | 61%-68% | 65%-72% | 75%-83% | Cell Survival Rate (increased percentage of cell survival compared with the Group of 5-FU) (HaCaT cells; selected compound final concentration 200 μM): 54%-62%
Cc1cn([C@H]2C[C@H](OC(=O)[C@@H](C)c3ccc(CC(C)C)cc3)[C@@H](COC(=O)[C@@H](C)c3ccc(CC(C)C)cc3)O2)c(=O)[nH]c1=O [T47] |  |  |  |  |  |  |  |  | Cell Survival Rate (increased percentage of cell survival compared with the Group of 5-FU) (HaCaT cells; selected compound final concentration 8 μM): 21%-28%; Cell Survival Rate (increased percentage of cell survival compared with the Group of 5-FU) (HaCaT cells; selected compound final concentration 16 μM): 35%-42%; Cell Survival Rate (increased percentage of cell survival compared with the Group of 5-FU) (HaCaT cells; selected compound final concentration 32 μM): 49%-56%; Cell Survival Rate (increased percentage of cell survival compared with the Group of 5-FU) (HaCaT cells; selected compound final concentration 62.5 μM): 63%-71%; Cell Survival Rate (increased percentage of cell survival compared with the Group of 5-FU) (HaCaT cells; selected compound final concentration 125 μM): 64%-72%; Cell Survival Rate (increased percentage of cell survival compared with the Group of 5-FU) (HaCaT cells; selected compound final concentration 250 μM): 44%-51%; Cell Survival Rate (increased percentage of cell survival compared with the Group of 5-FU) (HaCaT cells; selected compound final concentration 500 μM): 24%-31%
Cc1cn([C@H]2C[C@H](O)[C@@H](CO)O2)c(=O)[nH]c1=O [thymidine] |  |  |  |  |  |  |  |  | activation at 200 µM (HaCaT cells; Homo sapiens, HaCaT, increase vs Group of 5-FU, 5-FU 20 μM, compound 200 μM, 48 h, read-out: Cell Survival Rate): 3 to 8%; activation at 1000 µM (HaCaT cells; [2]): 15 to 23%; activation at 1500 µM (HaCaT cells; Homo sapiens, HaCaT, increase vs Group of 5-FU, 5-FU 20 μM, compound 1500 μM, 48 h, read-out: Cell Survival Rate): 11 to 17%; activation at 2000 µM (HaCaT cells; Homo sapiens, HaCaT, increase vs Group of 5-FU, 5-FU 20 μM, compound 2000 μM, 48 h, read-out: Cell Survival Rate): 1 to 6%; activation at 3000 µM (HaCaT cells; Homo sapiens, HaCaT, increase vs Group of 5-FU, 5-FU 20 μM, compound 3000 μM, 48 h, read-out: Cell Survival Rate): -25 to 20%
